Laboratory results reported in patent publication US20220267754A1, “VECTOR-BASED MUTAGENESIS SYSTEM” (priority 2015, published 2022).

Columns and labels:
[1] = tested on: E. coli MG1655 ΔrecA::apra; assay type: cell-based
E. coli = conditions: tabulated from Antimicrobial Index Knowledgebase; cited from earlier work

Nc1ncc2[nH]cnc2n1 [2AP, 2-aminopurine]
fraction of cells resistant, CRB [1]: 1.17E−07 | fraction of cells resistant, CTX [1]: 2.80E−06 | fraction of cells resistant, FOS [1]: 4.83E−04 | fraction of cells resistant, KAN [1]: 1.53E−03 | fraction of cells resistant, MIX [1]: 2.03E−05 | fraction of cells resistant, RIF [1]: 1.03E−05 | fraction of cells resistant, SPC [1]: 2.50E−07 | fraction of cells resistant, STR [1]: 3.17E−07 | fraction of cells resistant, TET [1]: 0.00E+00

CCOS(C)(=O)=O [EMS, ethyl methanesulfonate]
fraction of cells resistant, CRB [1]: 0.00E+00 | fraction of cells resistant, CTX [1]: 1.67E−07 | fraction of cells resistant, FOS [1]: 3.75E−04 | fraction of cells resistant, KAN [1]: 8.17E−04 | fraction of cells resistant, MIX [1]: 1.10E−04 | fraction of cells resistant, RIF [1]: 6.68E−05 | fraction of cells resistant, SPC [1]: 0.00E+00 | fraction of cells resistant, STR [1]: 1.33E−06 | fraction of cells resistant, TET [1]: 0.00E+00

CC1(C)S[C@@H]2[C@H](NC(=O)C(C(=O)O)c3ccccc3)C(=O)N2[C@H]1C(=O)O (some centres unmarked) [carbenicillin]
MIC (E. coli): 2 to 25 µg/mL

CO/N=C(\C(=O)N[C@@H]1C(=O)N2C(C(=O)O)=C(COC(C)=O)CS[C@H]12)c1csc(N)n1 [cefotaxime]
MIC (E. coli): 0.016 to 0.25 µg/mL

C[C@@H]1O[C@@H]1P(=O)(O)O [fosfomycin]
MIC (E. coli): 0.125 to 8 µg/mL

Cc1ncc([N+](=O)[O-])n1CCO [metronidazole]
MIC (E. coli): 8 to 32 µg/mL

CCn1cc(C(=O)O)c(=O)c2cc(F)c(N3CCNCC3)cc21 [norfloxacin]
MIC (E. coli): 0.016 to 0.125 µg/mL

CO[C@H]1/C=C/O[C@@]2(C)Oc3c(C)c(O)c4c(O)c(c(/C=N/N5CCN(C)CC5)c(O)c4c3C2=O)NC(=O)/C(C)=C\C=C\[C@H](C)[C@H](O)[C@@H](C)[C@@H](O)[C@@H](C)[C@H](OC(C)=O)[C@@H]1C [rifampin]
MIC (E. coli): 0.5 to 16 µg/mL

CN[C@@H]1[C@H](O)[C@H](NC)[C@H]2O[C@@]3(O)C(=O)C[C@@H](C)O[C@H]3O[C@@H]2[C@H]1O [spectinomycin]
MIC (E. coli): 8 to 64 µg/mL

[H]/N=C(/N)N[C@H]1[C@H](O)[C@@H](O)[C@H](O[C@@H]2O[C@@H](C)[C@](O)(C=O)[C@H]2O[C@@H]2O[C@@H](CO)[C@H](O)[C@@H](O)[C@@H]2NC)[C@@H](N/C(N)=N\[H])[C@@H]1O [streptomycin]
MIC (E. coli): 1 to 16 µg/mL
